Experiments:
[1] = Minolta L.A.B. (CIELAB) evaluation of lightening power on hair tresses; conditions: FIG. 1
Experimental: In all examples, the ΔE values were measured using a L.A.B. reading using the color measurement method of CIELAB which is used to mathematically compute and compare the color of hair tresses. The method was developed by CIE using L*, a* and b* values. L* represents the difference between light (where L*=100) and dark (where L* is 0); a represents the difference between green ([…]) and red (+a*); and b* represents the difference between yellow (+b*) and blue (−b*). This system then maps true color to a place on a three dimensional graph wherein the variables are calculated by the changes in their values and those changes are used to compute the ΔE value which is a change in color. Such a system is commercially known and used in the art.

[2] = Visual evaluation of the alkalizers' lightening power; conditions: conclusion from Tables 5 and 6, comparison of alkalizers
From the text: The examples above show hair lightening and hair coloring compositions. […]

O=[Si]([O-])[O-].[Na+].[Na+] [sodium metasilicate]
lift when added to ammonium hydroxide and MEA, versus the same component alone [1]: synergistic lift

N [ammonium hydroxide]
lift on the darker hair [2]: highest amount of lift
